In patent publication US12569509B2, “Method and composition for preventing and treating viral infections” (priority 2017, dated 2026):
“And” between values parts separate entries of the source, which are not always exact repeats. Equal entries are not always repeated.

Key:
human PBMC [1] = assay: LPS concentration optimization, cytokine release in human PBMC (Phase 1); assay type: cell-based; conditions: for IL-2 Mean Concentration in supernatant / IFN-g Mean Concentration in supernatant: Donors 1-3; for IL-2 Mean Concentration in supernatant: LLOQ = 2.387 pg/mL; for IFN-g Mean Concentration in supernatant: LLOQ = 2.872 pg/mL; for IL-1β Mean Concentration in supernatant / IL-6 Mean Concentration in supernatant / TNF-α Mean Concentration in supernatant: individual Donors 1-3
human PBMC [2] = assay: LPS stimulated cytokine secretion in human PBMC pretreated with compounds (Phase 2); assay type: cell-based; conditions: LPS alone, 1 ng/mL, 8-hour stimulation; for IL-2 concentration in supernatant: LLOQ = 1.698 pg/mL; for TNF-α concentration in supernatant: LLOQ = 2.018 pg/mL; for IL-1β concentration in supernatant: LLOQ = 2.299 pg/mL; for IFN-g concentration in supernatant: LLOQ = 2.792 pg/mL; for IL-6 concentration in supernatant: LLOQ = 0.831
Text: Results are represented as fold-change relative to LPS treatment alone for each cytokine calculated by means from 3 separate donors.
RPMI medium alone, RPMI supplemented with 0.2% DMSO (to mimic treatment conditions) or LPS stimulation alone were used as controls.
Except for the two negative control conditions, all 3 donors responded to all experimental conditions tested with the secretion of TNF-α, IL-1β, and IL-6 albeit with a high degree of variability.

## Lipopolysaccharide [LPS]
Human PBMC [1]; 1 ng/mL LPS, after 8 hours
  Secretion of IL-1b, IL-6 and TNF-α: robust secretion
  Secretion of IL-2 or IFN-g: No secretion
Human PBMC [1]; LPS 1 ng/mL, 8-hour
  IL-2 Mean Concentration in supernatant: <LLOQ
  IFN-g Mean Concentration in supernatant: <LLOQ
  IL-1β Mean Concentration in supernatant: 403.43 pg/mL and 575.75 pg/mL and 1756.56 pg/mL (2×)
  IL-6 Mean Concentration in supernatant: 64.83 pg/mL and 659.3 pg/mL and 1103.64 pg/mL (2×)
  TNF-α Mean Concentration in supernatant: 670.9 pg/mL and 817.83 pg/mL and 1149.23 pg/mL (2×)
Human PBMC [1]; LPS 1 ng/mL, 24-hour
  IL-2 Mean Concentration in supernatant: <LLOQ
  IFN-g Mean Concentration in supernatant: <LLOQ
  IL-1β Mean Concentration in supernatant: 923.42 pg/mL and 1164.43 pg/mL and 2396.79 pg/mL
  IL-6 Mean Concentration in supernatant: 1284.85 pg/mL and 1269.72 pg/mL and 1897.32 pg/mL
  TNF-α Mean Concentration in supernatant: 1768.29 pg/mL and 2299.94 pg/mL and 2108.58 pg/mL
Human PBMC [1]; LPS 10 ng/mL, 8-hour
  IL-2 Mean Concentration in supernatant: <LLOQ
  IFN-g Mean Concentration in supernatant: <LLOQ
  IL-1β Mean Concentration in supernatant: 404.91 pg/mL and 879.72 pg/mL and 1768.06 pg/mL
  IL-6 Mean Concentration in supernatant: 192.2 pg/mL and 830.13 pg/mL and 1084.03 pg/mL
  TNF-α Mean Concentration in supernatant: 912.13 pg/mL and 955.81 pg/mL and 1113.95 pg/mL
Human PBMC [1]; LPS 10 ng/mL, 24-hour
  IL-2 Mean Concentration in supernatant: <LLOQ
  IFN-g Mean Concentration in supernatant: <LLOQ
  IL-1β Mean Concentration in supernatant: 986.68 pg/mL and 1038.39 pg/mL and 2391.98 pg/mL
  IL-6 Mean Concentration in supernatant: 1393.01 pg/mL and 1167.49 pg/mL and 2016.76 pg/mL
  TNF-α Mean Concentration in supernatant: 2316.87 pg/mL and 1605.58 pg/mL and 2139.91 pg/mL
Human PBMC [1]; LPS 50 ng/mL, 8-hour
  IL-2 Mean Concentration in supernatant: <LLOQ
  IFN-g Mean Concentration in supernatant: <LLOQ
  IL-1β Mean Concentration in supernatant: 327.69 pg/mL and 1002.11 pg/mL and 1751.4 pg/mL
  IL-6 Mean Concentration in supernatant: 75.24 pg/mL and 880.71 pg/mL and 1096.09 pg/mL
  TNF-α Mean Concentration in supernatant: 511.42 pg/mL and 1143.84 pg/mL and 1051.41 pg/mL
Human PBMC [1]; LPS 50 ng/mL, 24-hour
  IL-2 Mean Concentration in supernatant: <LLOQ
  IFN-g Mean Concentration in supernatant: <LLOQ
  IL-1β Mean Concentration in supernatant: 899.92 pg/mL and 1170.32 pg/mL and 2216.54 pg/mL
  IL-6 Mean Concentration in supernatant: 1317.99 pg/mL and 1333.24 pg/mL and 1966.58 pg/mL
  TNF-α Mean Concentration in supernatant: 1680.24 pg/mL and 1378.24 pg/mL and 1954.44 pg/mL
Human PBMC [1]; LPS 100 ng/mL, 8-hour
  IL-2 Mean Concentration in supernatant: <LLOQ
  IFN-g Mean Concentration in supernatant: <LLOQ
  IL-1β Mean Concentration in supernatant: 298.82 pg/mL and 873.62 pg/mL and 1222.41 pg/mL
  IL-6 Mean Concentration in supernatant: 37.62 pg/mL and 820.5 pg/mL and 817.27 pg/mL
  TNF-α Mean Concentration in supernatant: 386.41 pg/mL and 1313.93 pg/mL and 868.83 pg/mL
Human PBMC [1]; LPS 100 ng/mL, 24-hour
  IL-2 Mean Concentration in supernatant: <LLOQ
  IFN-g Mean Concentration in supernatant: <LLOQ
  IL-1β Mean Concentration in supernatant: 913.95 pg/mL and 1182.07 pg/mL and 2282.4 pg/mL
  IL-6 Mean Concentration in supernatant: 1390.38 pg/mL and 1243.06 pg/mL and 2083.25 pg/mL
  TNF-α Mean Concentration in supernatant: 1792.89 pg/mL and 1332.65 pg/mL and 2343.08 pg/mL
Human PBMC [1]; LPS 1000 ng/mL, 8-hour
  IL-2 Mean Concentration in supernatant: <LLOQ
  IFN-g Mean Concentration in supernatant: <LLOQ
  IL-1β Mean Concentration in supernatant: 1008.83 pg/mL and 1979.93 pg/mL and 441.01 pg/mL
  IL-6 Mean Concentration in supernatant: 895.76 pg/mL and 1251.62 pg/mL and 166.25 pg/mL
  TNF-α Mean Concentration in supernatant: 1276.06 pg/mL and 1481.27 pg/mL and 498.68 pg/mL
Human PBMC [1]; LPS 1000 ng/mL, 24-hour
  IFN-g Mean Concentration in supernatant: <LLOQ
  IL-1β Mean Concentration in supernatant: 1145.77 pg/mL and 2192.5 pg/mL and 799.96 pg/mL
  IL-6 Mean Concentration in supernatant: 1519.68 pg/mL and 2426.8 pg/mL and 1363.37 pg/mL
  TNF-α Mean Concentration in supernatant: 2286.74 pg/mL and 3069.72 pg/mL and 1675.83 pg/mL
Human PBMC [1]; LPS ≥1 ng/mL, 8 and 24 hours, all donors
  Production of TNF-α, IL-1β, and IL-6: robust production
Human PBMC [2]; Donor 1
  IL-2 concentration in supernatant: <LLOQ
  TNF-α concentration in supernatant: 1417.82 pg/mL
  IL-1β concentration in supernatant: 2362.87 pg/mL
  IFN-g concentration in supernatant: <LLOQ
  IL-6 concentration in supernatant: 863.49 pg/mL
Human PBMC [2]; Donor 2
  IL-2 concentration in supernatant: <LLOQ
  TNF-α concentration in supernatant: 1375.72 pg/mL
  IL-1β concentration in supernatant: 2485.92 pg/mL
  IFN-g concentration in supernatant: <LLOQ
  IL-6 concentration in supernatant: 760.26 pg/mL
Human PBMC [2]; Donor 3
  IL-2 concentration in supernatant: <LLOQ
  TNF-α concentration in supernatant: 4449.11 pg/mL
  IL-1β concentration in supernatant: 3881.34 pg/mL
  IFN-g concentration in supernatant: <LLOQ
  IL-6 concentration in supernatant: 760.26 pg/mL
